Assay [1] concerns the target T1, Protein phosphatase 1 regulatory subunit 15B (Homo sapiens, UniProt Q5SWA1).
T1 sequence (Q5SWA1 whole entry): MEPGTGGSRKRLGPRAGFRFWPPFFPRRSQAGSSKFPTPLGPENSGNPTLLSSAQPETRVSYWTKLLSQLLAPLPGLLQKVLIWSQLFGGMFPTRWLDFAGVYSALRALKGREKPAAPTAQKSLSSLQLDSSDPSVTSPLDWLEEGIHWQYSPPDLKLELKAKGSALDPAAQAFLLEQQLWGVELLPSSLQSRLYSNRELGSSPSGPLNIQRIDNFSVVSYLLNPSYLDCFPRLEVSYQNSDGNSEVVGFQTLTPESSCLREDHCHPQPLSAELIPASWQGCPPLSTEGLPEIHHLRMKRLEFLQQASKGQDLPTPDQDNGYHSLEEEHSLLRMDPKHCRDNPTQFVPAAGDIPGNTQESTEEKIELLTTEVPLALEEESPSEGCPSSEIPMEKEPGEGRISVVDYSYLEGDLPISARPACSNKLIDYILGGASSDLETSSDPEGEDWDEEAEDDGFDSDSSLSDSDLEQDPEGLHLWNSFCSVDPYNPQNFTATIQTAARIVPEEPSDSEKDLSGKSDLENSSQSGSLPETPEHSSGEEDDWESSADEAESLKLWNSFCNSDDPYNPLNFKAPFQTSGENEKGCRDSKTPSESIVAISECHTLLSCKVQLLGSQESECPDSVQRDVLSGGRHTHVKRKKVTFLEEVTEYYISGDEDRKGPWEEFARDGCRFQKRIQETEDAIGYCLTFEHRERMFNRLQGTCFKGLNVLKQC
The assay is described as follows: Inhibition of amino-terminal MBP-tagged/carboxy-terminal His6-tagged human PPP1R15B (325 to 626 residues).

In assay [2] the target is Maternal embryonic leucine zipper kinase (Homo sapiens, UniProt Q14680). The assay is described as follows: Inhibition of MELK (unknown origin).
Assay [3] concerns the target Protein phosphatase 1 regulatory subunit 15A (Homo sapiens, UniProt O75807). Description: Inhibition of amino-terminal MBP-tagged/carboxy-terminal His6-tagged human PPP1R15A (325 to 626 residues).
The species named for another assay is Homo sapiens. Description: Selectivity ratio, ratio of IC50 for HDAC6 (unknown origin) to Class 1 HDAC (unknown origin).
The target in assay [4] is T2, Protein deacetylase HDAC6 (Homo sapiens, UniProt Q9UBN7).
T2 sequence (Q9UBN7 whole entry): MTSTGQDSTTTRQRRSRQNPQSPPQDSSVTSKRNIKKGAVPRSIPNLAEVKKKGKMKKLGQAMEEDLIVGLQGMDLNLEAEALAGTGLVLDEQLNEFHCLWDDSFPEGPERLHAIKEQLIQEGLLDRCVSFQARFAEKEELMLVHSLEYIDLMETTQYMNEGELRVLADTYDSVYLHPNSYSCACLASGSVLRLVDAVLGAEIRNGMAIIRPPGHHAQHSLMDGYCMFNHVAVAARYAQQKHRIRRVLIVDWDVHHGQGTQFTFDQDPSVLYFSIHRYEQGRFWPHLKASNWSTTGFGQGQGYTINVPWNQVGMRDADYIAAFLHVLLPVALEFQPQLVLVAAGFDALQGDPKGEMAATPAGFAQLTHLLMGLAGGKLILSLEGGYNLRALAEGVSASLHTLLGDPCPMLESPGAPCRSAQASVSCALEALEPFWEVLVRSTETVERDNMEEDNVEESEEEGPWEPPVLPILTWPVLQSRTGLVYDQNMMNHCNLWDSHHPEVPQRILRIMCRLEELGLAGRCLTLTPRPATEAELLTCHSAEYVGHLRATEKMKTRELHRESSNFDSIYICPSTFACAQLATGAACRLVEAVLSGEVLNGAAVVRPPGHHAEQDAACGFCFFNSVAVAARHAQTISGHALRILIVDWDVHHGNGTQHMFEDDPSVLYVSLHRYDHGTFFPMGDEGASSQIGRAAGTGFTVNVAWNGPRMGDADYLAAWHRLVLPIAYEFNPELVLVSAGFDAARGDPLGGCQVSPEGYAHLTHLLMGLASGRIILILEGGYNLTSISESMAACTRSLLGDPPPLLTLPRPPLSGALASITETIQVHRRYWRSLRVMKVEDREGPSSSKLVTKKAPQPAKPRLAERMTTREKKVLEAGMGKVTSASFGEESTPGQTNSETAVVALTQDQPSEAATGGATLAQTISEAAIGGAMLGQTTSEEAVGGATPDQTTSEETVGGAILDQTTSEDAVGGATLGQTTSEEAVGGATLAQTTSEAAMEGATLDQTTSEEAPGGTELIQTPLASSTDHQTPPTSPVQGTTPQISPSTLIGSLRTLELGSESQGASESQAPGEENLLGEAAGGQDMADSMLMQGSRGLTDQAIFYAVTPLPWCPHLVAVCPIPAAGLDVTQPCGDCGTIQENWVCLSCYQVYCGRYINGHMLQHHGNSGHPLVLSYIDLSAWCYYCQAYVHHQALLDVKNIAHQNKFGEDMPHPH
The assay is described as follows: Inhibition of HDAC6 (unknown origin).

Maternal embryonic leucine zipper kinase, sequence (Q14680 whole entry, the tested form may be a part): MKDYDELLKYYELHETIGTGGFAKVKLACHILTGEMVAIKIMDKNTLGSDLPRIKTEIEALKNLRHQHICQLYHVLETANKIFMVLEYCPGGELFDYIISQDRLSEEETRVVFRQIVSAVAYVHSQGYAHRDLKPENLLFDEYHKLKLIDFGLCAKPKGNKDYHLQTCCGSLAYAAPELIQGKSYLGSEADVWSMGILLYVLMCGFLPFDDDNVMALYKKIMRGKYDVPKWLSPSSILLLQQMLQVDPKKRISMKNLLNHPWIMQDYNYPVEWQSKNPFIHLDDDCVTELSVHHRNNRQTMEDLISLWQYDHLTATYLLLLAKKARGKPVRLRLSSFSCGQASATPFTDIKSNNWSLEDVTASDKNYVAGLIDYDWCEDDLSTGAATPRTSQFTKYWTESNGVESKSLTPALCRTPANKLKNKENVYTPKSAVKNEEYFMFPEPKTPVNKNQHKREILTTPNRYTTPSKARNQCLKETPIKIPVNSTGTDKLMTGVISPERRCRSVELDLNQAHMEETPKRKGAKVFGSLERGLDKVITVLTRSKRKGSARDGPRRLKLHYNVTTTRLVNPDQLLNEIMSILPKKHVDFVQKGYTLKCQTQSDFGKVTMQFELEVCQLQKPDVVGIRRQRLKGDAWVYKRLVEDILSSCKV
Protein phosphatase 1 regulatory subunit 15A, sequence (O75807 whole entry, the tested form may be a part): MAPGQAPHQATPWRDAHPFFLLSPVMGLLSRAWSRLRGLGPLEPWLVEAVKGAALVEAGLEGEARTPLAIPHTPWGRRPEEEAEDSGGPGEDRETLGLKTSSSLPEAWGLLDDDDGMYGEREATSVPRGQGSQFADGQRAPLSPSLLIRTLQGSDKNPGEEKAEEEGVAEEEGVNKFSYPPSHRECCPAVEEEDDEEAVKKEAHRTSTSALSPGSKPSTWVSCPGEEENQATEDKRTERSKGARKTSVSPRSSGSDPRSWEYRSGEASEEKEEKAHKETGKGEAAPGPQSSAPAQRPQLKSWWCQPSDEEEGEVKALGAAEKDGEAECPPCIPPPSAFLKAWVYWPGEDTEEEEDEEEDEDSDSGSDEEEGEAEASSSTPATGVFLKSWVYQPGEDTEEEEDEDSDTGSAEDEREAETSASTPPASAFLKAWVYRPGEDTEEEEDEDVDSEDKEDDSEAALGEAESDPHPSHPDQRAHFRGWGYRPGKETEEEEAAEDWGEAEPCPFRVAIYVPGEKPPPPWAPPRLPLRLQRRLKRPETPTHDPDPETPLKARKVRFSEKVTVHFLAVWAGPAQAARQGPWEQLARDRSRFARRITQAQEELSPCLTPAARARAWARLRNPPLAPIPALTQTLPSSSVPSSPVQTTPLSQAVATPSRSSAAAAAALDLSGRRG

For the compound `N=C(N)N/N=C/c1cccc(Cl)c1Cl`, the IC50 (in general, the concentration that inhibits the measured activity by half) was 33 nM in assay [1], 200 to 500 nM in assay [2] and 977 nM in assay [3].

With `O=C(NO)c1ccc(Cn2c(=O)n(CCc3ccccc3)c(=O)c3ccccc32)cc1`, the results for the IC50 in assay [2] and in assay [4] were 200 to 500 nM and 4.7 nM, respectively. The Ratio IC50 in the assay listed under Homo sapiens came out at 200.

With `COc1ccc(/C=C2\SC(=S)NC2=O)cc1C#C[Si](C)(C)C`, the IC50 in assay [2] was 200 to 500 nM.

Consider `CNC(=O)COc1cc2cc(Nc3nc(N4C[C@H](C)C[C@H](C)C4)ncc3Cl)ccc2n(C)c1=O`, for which the IC50 in assay [2] was 200 to 500 nM.

The record behind these values is ChEMBL document CHEMBL4627375, “Monovalent protein-degraders - Insights and future perspectives” (Bioorg Med Chem Lett, 2020).
